Values joined by “and” are separate entries in the source; they are usually repeats but may differ in a detail not shown here. Identical values can stand only once.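 48-hour exposure; five concentrations; linearly interpolated endpoints. GI50 marks 50% less growth. TGI is the concentration that stops growth completely.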 Bounds are passed on as bounds.

Some test systems named below: ACHN renal; SW-620 colon; U251 CNS; HCT-116 colon; HT29 colon; RPMI-8226 leukemia; K-562 leukemia; SK-MEL-2 melanoma; HL-60(TB) leukemia; HOP-92 NSCLC.
What all share (assay): NCI-60 cell line screen, 48 h

Take `Cn1nccc1Nc1nccc(-c2cc3c(s2)C(C)(C)N(CCN2CCOCC2)C3=O)n1`: the GI50 in the test with ACHN renal is 9.53 µM; in the test with SW-620 colon, 1.22 µM; in the test with U251 CNS it was 33.7 µM; with HCT-116 colon, 0.594 µM; with HT29 colon, 0.277 µM; with RPMI-8226 leukemia, 23.3 µM. Besides, the GI50 in the test on K-562 leukemia was 11.7 µM; in the test on SK-MEL-2 melanoma, 0.402 µM; with HL-60(TB) leukemia, 0.499 µM. Moreover, the TGI in the test with ACHN renal, in the test with SW-620 colon, in the test on U251 CNS, with HCT-116 colon, with HT29 colon and in the test with RPMI-8226 leukemia was greater than 100 µM each time. Further, the TGI was greater than 100 µM with K-562 leukemia, 6.74 µM with SK-MEL-2 melanoma and 78 µM with HL-60(TB) leukemia.

As for `COC(=O)C1=C(O)c2cc(OC)c(OC)c(OC)c2[C@H](c2cc(OC)c(OC)c(OC)c2)C1C(=O)OC` (some centres undefined), the TGI with ACHN renal is greater than 100 µM; in the test with SW-620 colon, greater than 100 µM; in the test on U251 CNS it was greater than 100 µM; with HCT-116 colon it was greater than 100 µM; in the test with HT29 colon, 61.6 µM; with HOP-92 NSCLC, 69.3 µM. For the same compound, the TGI amounted to 87.1 µM with RPMI-8226 leukemia, 86.1 µM with K-562 leukemia and 61.6 µM with HL-60(TB) leukemia.

`COc1ccc(-c2[nH]c3ccccc3c2C=C(C#N)C#N)cc1`: the GI50 in the test with ACHN renal is 2.26 µM; in the test with SW-620 colon it was 0.435 µM; in the test on U251 CNS, 0.479 µM; in the test on HCT-116 colon, 0.41 µM; in the test on HT29 colon, 0.371 µM; in the test with HOP-92 NSCLC it was 1.21 µM. For the same compound, the GI50 with HL-60(TB) leukemia was 0.271 µM. Moreover, the TGI in the test on ACHN renal was greater than 100 µM; in the test with SW-620 colon it was greater than 100 µM; in the test on U251 CNS it was greater than 100 µM; with HCT-116 colon, greater than 21.1 µM; in the test with HT29 colon, greater than 100 µM; in the test on HOP-92 NSCLC, greater than 100 µM. Besides, the TGI was greater than 100 µM in the test with SK-MEL-2 melanoma and 0.714 µM in the test with HL-60(TB) leukemia.

Turning to `O=c1cccccc1NCCOCCNc1cccccc1=O`, the TGI in the test on ACHN renal, in the test on SW-620 colon, with U251 CNS, in the test with HCT-116 colon, in the test on HT29 colon and in the test with RPMI-8226 leukemia was greater than 100 µM each time. Moreover, the TGI in the test on K-562 leukemia, in the test on SK-MEL-2 melanoma and in the test with HL-60(TB) leukemia was greater than 100 µM throughout.

Take `O=S(=O)(/C=C/c1ccc(Cl)cc1Cl)Cc1ccccc1CS(=O)(=O)/C=C/c1ccc(Cl)cc1Cl`: the TGI with ACHN renal, with SW-620 colon, in the test with U251 CNS, in the test with HCT-116 colon, in the test with HT29 colon and with HOP-92 NSCLC was greater than 100 µM each time. Besides, the TGI in the test with RPMI-8226 leukemia, with K-562 leukemia and with SK-MEL-2 melanoma was greater than 100 µM throughout.

In the case of `C[n+]1c(/C=C\c2ccc(Cl)cc2)ccc2ccccc21`, the GI50 with ACHN renal was 81.6 µM; in the test on SW-620 colon it was 4.1 µM; in the test with U251 CNS it was 3.7 µM; in the test on HCT-116 colon, 12.6 µM; in the test on HT29 colon, 19.4 µM; with RPMI-8226 leukemia it was 14.4 µM. Further, the results for the GI50 in the test on K-562 leukemia, in the test on SK-MEL-2 melanoma and with HL-60(TB) leukemia were 8.69 µM, 21 µM and 24.2 µM, respectively. Also, the TGI was greater than 100 µM with ACHN renal; 63.4 µM in the test with SW-620 colon; greater than 100 µM in the test on U251 CNS; greater than 100 µM with HCT-116 colon; greater than 100 µM in the test with HT29 colon; greater than 100 µM with RPMI-8226 leukemia. For the same compound, the figures for the TGI in the test with K-562 leukemia, in the test with SK-MEL-2 melanoma and in the test with HL-60(TB) leukemia were greater than 100 µM, 50.3 µM and greater than 100 µM, respectively.

With `Cc1cc(O)cc2oc(=O)c3c(O)cc(O)cc3c12`, the TGI in the test with ACHN renal is 71.1 µM; with SW-620 colon, 49.9 µM; in the test on U251 CNS it was greater than 100 µM; with HCT-116 colon, 37.6 µM; in the test with HT29 colon it was greater than 100 µM; in the test with HOP-92 NSCLC, 76.3 µM. For the same compound, the TGI was greater than 100 µM with K-562 leukemia, greater than 100 µM in the test on SK-MEL-2 melanoma and 46.5 µM in the test on HL-60(TB) leukemia.

Turning to `CS(=O)(=O)NNS(=O)(=O)c1cccc([N+](=O)[O-])c1`, the TGI with ACHN renal, with SW-620 colon, in the test on U251 CNS, with HCT-116 colon, with HT29 colon and in the test with RPMI-8226 leukemia was greater than 100 µM throughout. Besides, the TGI in the test with K-562 leukemia, with SK-MEL-2 melanoma and in the test on HL-60(TB) leukemia was greater than 100 µM each time.

`COC(=O)C1=C2CCC(=O)[C@@]2(C)C(OC(C)=O)C=CC1` (some centres undefined): the TGI with ACHN renal is greater than 100 µM; in the test with SW-620 colon, greater than 100 µM; in the test on U251 CNS, greater than 100 µM; in the test with HCT-116 colon it was 69.6 µM; in the test on HT29 colon it was greater than 100 µM; in the test on RPMI-8226 leukemia, greater than 100 µM. The TGI with K-562 leukemia, in the test on SK-MEL-2 melanoma and in the test on HL-60(TB) leukemia was greater than 100 µM each time.

With `CN(C)CCNC(=O)c1cc2ccccc2c2nc3ccccc3nc12`, the TGI with ACHN renal turned out to be 2.1 µM; in the test on U251 CNS, 4.92 µM; in the test on HCT-116 colon, 1.87 µM; with HT29 colon, 2.9 µM; in the test on RPMI-8226 leukemia it was 3.42 µM; with K-562 leukemia, 1.96 µM. The TGI in the test with SK-MEL-2 melanoma is 2.81 µM.

Take `CC(=O)[CH-]C(=O)c1ccccc1.CC(=O)[CH-]C(=O)c1ccccc1.CC[O-].CC[O-].[Zr+4]`: the GI50 in the test with ACHN renal, in the test with SW-620 colon, in the test on U251 CNS, in the test on HCT-116 colon, in the test with HT29 colon and with RPMI-8226 leukemia was greater than 100 µM throughout. The GI50 in the test on K-562 leukemia, in the test on SK-MEL-2 melanoma and in the test with HL-60(TB) leukemia was greater than 100 µM each time. For the same compound, the TGI in the test with ACHN renal, in the test on SW-620 colon, with U251 CNS, in the test on HCT-116 colon, in the test on HT29 colon and in the test on RPMI-8226 leukemia was greater than 100 µM in each case. Further, the TGI with K-562 leukemia, in the test with SK-MEL-2 melanoma and in the test with HL-60(TB) leukemia was greater than 100 µM throughout.

Consider `CCCCCCCCCCCCCC(=O)O[C@H]1CC[C@H](NC(=O)[C@H](OC)[C@H](O)[C@@H](O)[C@H](O)/C=C/C(C)C)C(=O)NC1`, for which the TGI in the test on SW-620 colon is 11.2 µM and 12.8 µM; in the test on U251 CNS, 18.6 µM and 11 µM; with HCT-116 colon, 1.06 µM; in the test with HT29 colon, 7.29 µM and 12.7 µM; in the test on HOP-92 NSCLC, 4.12 µM; with RPMI-8226 leukemia, 11.6 µM and 10.2 µM. Further, the TGI is 11.8 µM and 15.4 µM in the test with K-562 leukemia; 51.2 µM and 9.49 µM in the test on SK-MEL-2 melanoma. The GI50 in the test on HOP-92 NSCLC was 0.554 µM.

For the origin of these results see PubChem BioAssay (NCI).
